{"source": "PubChem BioAssay (NCI)", "test_in_all_cases": "growth of human tumour cells (NCI), 48 h", "key": {"786-0 renal": {"test_system": "786-0 renal"}, "A498 renal": {"test_system": "A498 renal"}, "A549 NSCLC": {"test_system": "A549 NSCLC"}, "ACHN renal": {"test_system": "ACHN renal"}, "BT-549 breast": {"test_system": "BT-549 breast"}, "CAKI-1 renal": {"test_system": "CAKI-1 renal"}, "CCRF-CEM leukemia": {"test_system": "CCRF-CEM leukemia"}, "COLO 205 colon": {"test_system": "COLO 205 colon"}, "DU-145 prostate": {"test_system": "DU-145 prostate"}, "EKVX NSCLC": {"test_system": "EKVX NSCLC"}, "HCC-2998 colon": {"test_system": "HCC-2998 colon"}, "HCT-116 colon": {"test_system": "HCT-116 colon"}, "HCT-15 colon": {"test_system": "HCT-15 colon"}, "HL-60(TB) leukemia": {"test_system": "HL-60(TB) leukemia"}, "HOP-62 NSCLC": {"test_system": "HOP-62 NSCLC"}, "HOP-92 NSCLC": {"test_system": "HOP-92 NSCLC"}, "HS 578T breast": {"test_system": "HS 578T breast"}, "HT29 colon": {"test_system": "HT29 colon"}, "IGROV1 ovarian": {"test_system": "IGROV1 ovarian"}, "K-562 leukemia": {"test_system": "K-562 leukemia"}, "KM12 colon": {"test_system": "KM12 colon"}, "LOX IMVI melanoma": {"test_system": "LOX IMVI melanoma"}, "M14 melanoma": {"test_system": "M14 melanoma"}, "MALME-3M melanoma": {"test_system": "MALME-3M melanoma"}, "MCF7 breast": {"test_system": "MCF7 breast"}, "MDA-MB-231 breast": {"test_system": "MDA-MB-231 breast"}, "MDA-MB-435": {"test_system": "MDA-MB-435"}, "MDA-N": {"test_system": "MDA-N"}, "MOLT-4 leukemia": {"test_system": "MOLT-4 leukemia"}, "NCI-H226 lung": {"test_system": "NCI-H226 lung"}, "NCI-H23 lung": {"test_system": "NCI-H23 lung"}, "NCI-H460 lung": {"test_system": "NCI-H460 lung"}, "NCI-H522 lung": {"test_system": "NCI-H522 lung"}, "NCI/ADR-RES ovarian": {"test_system": "NCI/ADR-RES ovarian"}, "OVCAR-3 ovarian": {"test_system": "OVCAR-3 ovarian"}, "OVCAR-4 ovarian": {"test_system": "OVCAR-4 ovarian"}, "OVCAR-5 ovarian": {"test_system": "OVCAR-5 ovarian"}, "OVCAR-8 ovarian": {"test_system": "OVCAR-8 ovarian"}, "PC-3 prostate": {"test_system": "PC-3 prostate"}, "RPMI-8226 leukemia": {"test_system": "RPMI-8226 leukemia"}, "RXF 393 renal": {"test_system": "RXF 393 renal"}, "SF-268 CNS": {"test_system": "SF-268 CNS"}, "SF-295 CNS": {"test_system": "SF-295 CNS"}, "SF-539 CNS": {"test_system": "SF-539 CNS"}, "SK-MEL-2 melanoma": {"test_system": "SK-MEL-2 melanoma"}, "SK-MEL-28 melanoma": {"test_system": "SK-MEL-28 melanoma"}, "SK-MEL-5 melanoma": {"test_system": "SK-MEL-5 melanoma"}, "SK-OV-3 ovarian": {"test_system": "SK-OV-3 ovarian"}, "SN12C renal": {"test_system": "SN12C renal"}, "SNB-19 CNS": {"test_system": "SNB-19 CNS"}, "SW-620 colon": {"test_system": "SW-620 colon"}, "T-47D breast": {"test_system": "T-47D breast"}, "TK-10 renal": {"test_system": "TK-10 renal"}, "U251 CNS": {"test_system": "U251 CNS"}, "UACC-257 melanoma": {"test_system": "UACC-257 melanoma"}, "UACC-62 melanoma": {"test_system": "UACC-62 melanoma"}, "UO-31 renal": {"test_system": "UO-31 renal"}}, "note": "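Following 48 hours of exposure in 96-well plates, responses at five concentrations were used to interpolate endpoints linearly. TGI: total growth inhibition.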"}
{"smiles": "COc1ccc(CCN2CCN(CCc3ccc(OC)cc3)CC2)cc1", "values": [{"measurement": "TGI", "setting": "786-0 renal", "value": "> 100", "unit": "µM"}, {"measurement": "TGI", "setting": "A498 renal", "value": "> 100", "unit": "µM"}, {"measurement": "TGI", "setting": "A549 NSCLC", "value": "> 100", "unit": "µM"}, {"measurement": "TGI", "setting": "ACHN renal", "value": "> 100", "unit": "µM"}, {"measurement": "TGI", "setting": "BT-549 breast", "value": "> 100", "unit": "µM"}, {"measurement": "TGI", "setting": "CAKI-1 renal", "value": "> 100", "unit": "µM"}, {"measurement": "TGI", "setting": "CCRF-CEM leukemia", "value": "> 100", "unit": "µM"}, {"measurement": "TGI", "setting": "COLO 205 colon", "value": "> 100", "unit": "µM"}, {"measurement": "TGI", "setting": "DU-145 prostate", "value": "> 100", "unit": "µM"}, {"measurement": "TGI", "setting": "EKVX NSCLC", "value": "> 100", "unit": "µM"}, {"measurement": "TGI", "setting": "HCC-2998 colon", "value": "> 100", "unit": "µM"}, {"measurement": "TGI", "setting": "HCT-116 colon", "value": "> 100", "unit": "µM"}, {"measurement": "TGI", "setting": "HCT-15 colon", "value": "> 100", "unit": "µM"}, {"measurement": "TGI", "setting": "HL-60(TB) leukemia", "value": "> 100", "unit": "µM"}, {"measurement": "TGI", "setting": "HOP-62 NSCLC", "value": "> 100", "unit": "µM"}, {"measurement": "TGI", "setting": "HOP-92 NSCLC", "value": "> 100", "unit": "µM"}, {"measurement": "TGI", "setting": "HS 578T breast", "value": "> 100", "unit": "µM"}, {"measurement": "TGI", "setting": "HT29 colon", "value": "> 100", "unit": "µM"}, {"measurement": "TGI", "setting": "IGROV1 ovarian", "value": "> 100", "unit": "µM"}, {"measurement": "TGI", "setting": "K-562 leukemia", "value": "> 100", "unit": "µM"}, {"measurement": "TGI", "setting": "KM12 colon", "value": "> 100", "unit": "µM"}, {"measurement": "TGI", "setting": "LOX IMVI melanoma", "value": "> 100", "unit": "µM"}, {"measurement": "TGI", "setting": "M14 melanoma", "value": "> 100", "unit": "µM"}, {"measurement": "TGI", "setting": "MALME-3M melanoma", "value": "> 100", "unit": "µM"}, {"measurement": "TGI", "setting": "MCF7 breast", "value": "> 100", "unit": "µM"}, {"measurement": "TGI", "setting": "MDA-MB-231 breast", "value": "> 100", "unit": "µM"}, {"measurement": "TGI", "setting": "MDA-MB-435", "value": "> 100", "unit": "µM"}, {"measurement": "TGI", "setting": "MDA-N", "value": "> 100", "unit": "µM"}, {"measurement": "TGI", "setting": "MOLT-4 leukemia", "value": "> 100", "unit": "µM"}, {"measurement": "TGI", "setting": "NCI-H226 lung", "value": "> 100", "unit": "µM"}, {"measurement": "TGI", "setting": "NCI-H23 lung", "value": "> 100", "unit": "µM"}, {"measurement": "TGI", "setting": "NCI-H460 lung", "value": "> 100", "unit": "µM"}, {"measurement": "TGI", "setting": "NCI-H522 lung", "value": "> 100", "unit": "µM"}, {"measurement": "TGI", "setting": "NCI/ADR-RES ovarian", "value": "> 100", "unit": "µM"}, {"measurement": "TGI", "setting": "OVCAR-3 ovarian", "value": "> 100", "unit": "µM"}, {"measurement": "TGI", "setting": "OVCAR-4 ovarian", "value": "> 100", "unit": "µM"}, {"measurement": "TGI", "setting": "OVCAR-5 ovarian", "value": "> 100", "unit": "µM"}, {"measurement": "TGI", "setting": "OVCAR-8 ovarian", "value": "> 100", "unit": "µM"}, {"measurement": "TGI", "setting": "PC-3 prostate", "value": "> 100", "unit": "µM"}, {"measurement": "TGI", "setting": "RPMI-8226 leukemia", "value": "> 100", "unit": "µM"}, {"measurement": "TGI", "setting": "RXF 393 renal", "value": 95.1, "unit": "µM"}, {"measurement": "TGI", "setting": "SF-268 CNS", "value": "> 100", "unit": "µM"}, {"measurement": "TGI", "setting": "SF-295 CNS", "value": "> 100", "unit": "µM"}, {"measurement": "TGI", "setting": "SF-539 CNS", "value": "> 100", "unit": "µM"}, {"measurement": "TGI", "setting": "SK-MEL-2 melanoma", "value": "> 100", "unit": "µM"}, {"measurement": "TGI", "setting": "SK-MEL-28 melanoma", "value": "> 100", "unit": "µM"}, {"measurement": "TGI", "setting": "SK-MEL-5 melanoma", "value": "> 100", "unit": "µM"}, {"measurement": "TGI", "setting": "SK-OV-3 ovarian", "value": "> 100", "unit": "µM"}, {"measurement": "TGI", "setting": "SN12C renal", "value": "> 100", "unit": "µM"}, {"measurement": "TGI", "setting": "SNB-19 CNS", "value": "> 100", "unit": "µM"}, {"measurement": "TGI", "setting": "SW-620 colon", "value": "> 100", "unit": "µM"}, {"measurement": "TGI", "setting": "T-47D breast", "value": "> 100", "unit": "µM"}, {"measurement": "TGI", "setting": "TK-10 renal", "value": "> 100", "unit": "µM"}, {"measurement": "TGI", "setting": "U251 CNS", "value": "> 100", "unit": "µM"}, {"measurement": "TGI", "setting": "UACC-257 melanoma", "value": "> 100", "unit": "µM"}, {"measurement": "TGI", "setting": "UACC-62 melanoma", "value": "> 100", "unit": "µM"}, {"measurement": "TGI", "setting": "UO-31 renal", "value": "> 100", "unit": "µM"}]}
